{"source": "ChEMBL document CHEMBL1201862", "about": "“PubChem BioAssay data set” (2004)", "assay_in_all_cases": "DTP human tumour cell line panel, 48 h", "key": {"786-0": {"test_system": "786-0"}, "A498": {"test_system": "A498"}, "A549": {"test_system": "A549"}, "ACHN": {"test_system": "ACHN"}, "BT-549": {"test_system": "BT-549"}, "CAKI-1": {"test_system": "CAKI-1"}, "CCRF-CEM": {"test_system": "CCRF-CEM"}, "COLO 205": {"test_system": "COLO 205"}, "DU-145": {"test_system": "DU-145"}, "EKVX": {"test_system": "EKVX"}, "HCC 2998": {"test_system": "HCC 2998"}, "HCT-116": {"test_system": "HCT-116"}, "HCT-15": {"test_system": "HCT-15"}, "HL-60": {"test_system": "HL-60"}, "HOP-62": {"test_system": "HOP-62"}, "HOP-92": {"test_system": "HOP-92"}, "HT-29": {"test_system": "HT-29"}, "IGROV-1": {"test_system": "IGROV-1"}, "K562": {"test_system": "K562"}, "KM12": {"test_system": "KM12"}, "LOX IMVI": {"test_system": "LOX IMVI"}, "M14": {"test_system": "M14"}, "MCF7": {"test_system": "MCF7"}, "MDA-MB-231": {"test_system": "MDA-MB-231"}, "MDA-MB-435": {"test_system": "MDA-MB-435"}, "MDA-N": {"test_system": "MDA-N"}, "MOLT-4": {"test_system": "MOLT-4"}, "NCI-H226": {"test_system": "NCI-H226"}, "NCI-H23": {"test_system": "NCI-H23"}, "NCI-H460": {"test_system": "NCI-H460"}, "NCI/ADR-RES": {"test_system": "NCI/ADR-RES"}, "OVCAR-3": {"test_system": "OVCAR-3"}, "OVCAR-4": {"test_system": "OVCAR-4"}, "OVCAR-5": {"test_system": "OVCAR-5"}, "OVCAR-8": {"test_system": "OVCAR-8"}, "PC-3": {"test_system": "PC-3"}, "RPMI-8226": {"test_system": "RPMI-8226"}, "RXF 393": {"test_system": "RXF 393"}, "SF-295": {"test_system": "SF-295"}, "SK-MEL-28": {"test_system": "SK-MEL-28"}, "SK-MEL-2": {"test_system": "SK-MEL-2"}, "SK-MEL-5": {"test_system": "SK-MEL-5"}, "SK-OV-3": {"test_system": "SK-OV-3"}, "SN12C": {"test_system": "SN12C"}, "SNB-19": {"test_system": "SNB-19"}, "SW-620": {"test_system": "SW-620"}, "T47D": {"test_system": "T47D"}, "TK-10": {"test_system": "TK-10"}, "U-251": {"test_system": "U-251"}, "UACC-257": {"test_system": "UACC-257"}, "UACC-62": {"test_system": "UACC-62"}, "UO-31": {"test_system": "UO-31"}, "Hs-578T": {"test_system": "Hs-578T"}}, "note": "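Values below derive from 48-hour exposures of cells grown in 96-well plates, with endpoints linearly interpolated between the two concentrations bracketing the appropriate inhibition level. GI50 marks 50% less growth.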 Activity calls are given as the source filed them. Cut-off read from the data, not from the text of the source: active = GI50 up to about 1.1 µM and inactive = higher.", "data": [{"compound": "O=C(NCCO)Nc1c(C(F)(F)F)cc(-c2ccccc2)[nH]c1=O", "values": [{"measurement": "GI50", "setting": "786-0", "value": "> 100 µM (inactive)"}, {"measurement": "GI50", "setting": "A498", "value": "> 100 µM (inactive)"}, {"measurement": "GI50", "setting": "A549", "value": "> 100 µM (inactive)"}, {"measurement": "GI50", "setting": "ACHN", "value": "> 100 µM (inactive)"}, {"measurement": "GI50", "setting": "BT-549", "value": "> 100 µM (inactive)"}, {"measurement": "GI50", "setting": "CAKI-1", "value": "> 100 µM (inactive)"}, {"measurement": "GI50", "setting": "CCRF-CEM", "value": "> 100 µM (inactive)"}, {"measurement": "GI50", "setting": "COLO 205", "value": "> 100 µM (inactive)"}, {"measurement": "GI50", "setting": "DU-145", "value": "> 100 µM (inactive)"}, {"measurement": "GI50", "setting": "EKVX", "value": "> 100 µM (inactive)"}, {"measurement": "GI50", "setting": "HCC 2998", "value": "> 100 µM (inactive)"}, {"measurement": "GI50", "setting": "HCT-116", "value": "> 100 µM (inactive)"}, {"measurement": "GI50", "setting": "HCT-15", "value": "> 100", "unit": "µM"}, {"measurement": "GI50", "setting": "HL-60", "value": "19.8 µM (inactive)"}, {"measurement": "GI50", "setting": "HOP-62", "value": "> 100 µM (inactive)"}, {"measurement": "GI50", "setting": "HOP-92", "value": "> 100 µM (inactive)"}, {"measurement": "GI50", "setting": "HT-29", "value": "> 100 µM (inactive)"}, {"measurement": "GI50", "setting": "IGROV-1", "value": "> 100 µM (inactive)"}, {"measurement": "GI50", "setting": "K562", "value": "> 100 µM (inactive)"}, {"measurement": "GI50", "setting": "KM12", "value": "> 100 µM (inactive)"}, {"measurement": "GI50", "setting": "LOX IMVI", "value": "> 100 µM (inactive)"}, {"measurement": "GI50", "setting": "M14", "value": "> 100 µM (inactive)"}, {"measurement": "GI50", "setting": "MCF7", "value": "> 100 µM (inactive)"}, {"measurement": "GI50", "setting": "MDA-MB-231", "value": "> 100 µM (inactive)"}, {"measurement": "GI50", "setting": "MDA-MB-435", "value": "> 100 µM (inactive)"}, {"measurement": "GI50", "setting": "MDA-N", "value": "> 100 µM (inactive)"}, {"measurement": "GI50", "setting": "MOLT-4", "value": "> 100 µM (inactive)"}, {"measurement": "GI50", "setting": "NCI-H226", "value": "> 100 µM (inactive)"}, {"measurement": "GI50", "setting": "NCI-H23", "value": "> 100 µM (inactive)"}, {"measurement": "GI50", "setting": "NCI-H460", "value": "> 100 µM (inactive)"}, {"measurement": "GI50", "setting": "NCI/ADR-RES", "value": "> 100 µM (inactive)"}, {"measurement": "GI50", "setting": "OVCAR-3", "value": "> 100 µM (inactive)"}, {"measurement": "GI50", "setting": "OVCAR-4", "value": "> 100 µM (inactive)"}, {"measurement": "GI50", "setting": "OVCAR-5", "value": "> 100 µM (inactive)"}, {"measurement": "GI50", "setting": "OVCAR-8", "value": "> 100 µM (inactive)"}, {"measurement": "GI50", "setting": "PC-3", "value": "> 100 µM (inactive)"}, {"measurement": "GI50", "setting": "RPMI-8226", "value": "> 100 µM (inactive)"}, {"measurement": "GI50", "setting": "RXF 393", "value": "> 100 µM (inactive)"}, {"measurement": "GI50", "setting": "SF-295", "value": "> 100 µM (inactive)"}, {"measurement": "GI50", "setting": "SK-MEL-28", "value": "> 100 µM (inactive)"}, {"measurement": "GI50", "setting": "SK-MEL-2", "value": "> 100 µM (inactive)"}, {"measurement": "GI50", "setting": "SK-MEL-5", "value": "> 100 µM (inactive)"}, {"measurement": "GI50", "setting": "SK-OV-3", "value": "> 100 µM (inactive)"}, {"measurement": "GI50", "setting": "SN12C", "value": "> 100 µM (inactive)"}, {"measurement": "GI50", "setting": "SNB-19", "value": "> 100 µM (inactive)"}, {"measurement": "GI50", "setting": "SW-620", "value": "> 100 µM (inactive)"}, {"measurement": "GI50", "setting": "T47D", "value": "> 100 µM (inactive)"}, {"measurement": "GI50", "setting": "TK-10", "value": "> 100 µM (inactive)"}, {"measurement": "GI50", "setting": "U-251", "value": "> 100 µM (inactive)"}, {"measurement": "GI50", "setting": "UACC-257", "value": "> 100 µM (inactive)"}, {"measurement": "GI50", "setting": "UACC-62", "value": "> 100 µM (inactive)"}, {"measurement": "GI50", "setting": "UO-31", "value": "> 100 µM (inactive)"}]}, {"compound": "O=C1C(O)=C(Cc2ccccc2)C(=O)c2ccccc21", "values": [{"measurement": "GI50", "setting": "786-0", "value": "61.7 µM (inactive)"}, {"measurement": "GI50", "setting": "A498", "value": "51.6 µM (inactive)"}, {"measurement": "GI50", "setting": "BT-549", "value": "70.8 µM (inactive)"}, {"measurement": "GI50", "setting": "EKVX", "value": "55.1 µM (inactive)"}, {"measurement": "GI50", "setting": "HCC 2998", "value": "83.2 µM (inactive)"}, {"measurement": "GI50", "setting": "HCT-116", "value": "50.6 µM (inactive)"}, {"measurement": "GI50", "setting": "HCT-15", "value": 35.6, "unit": "µM"}, {"measurement": "GI50", "setting": "HT-29", "value": "48.9 µM (inactive)"}, {"measurement": "GI50", "setting": "Hs-578T", "value": "37.3 µM (inactive)"}, {"measurement": "GI50", "setting": "M14", "value": "34.8 µM (inactive)"}, {"measurement": "GI50", "setting": "MDA-MB-231", "value": "91.2 µM (inactive)"}, {"measurement": "GI50", "setting": "NCI-H23", "value": "49.1 µM (inactive)"}, {"measurement": "GI50", "setting": "NCI/ADR-RES", "value": "49.5 µM (inactive)"}, {"measurement": "GI50", "setting": "OVCAR-3", "value": "27.7 µM (inactive)"}, {"measurement": "GI50", "setting": "OVCAR-4", "value": "46.6 µM (inactive)"}, {"measurement": "GI50", "setting": "OVCAR-5", "value": "> 100 µM (inactive)"}, {"measurement": "GI50", "setting": "PC-3", "value": "54.5 µM (inactive)"}, {"measurement": "GI50", "setting": "SF-295", "value": "45.3 µM (inactive)"}, {"measurement": "GI50", "setting": "SK-MEL-28", "value": "42.3 µM (inactive)"}, {"measurement": "GI50", "setting": "SK-MEL-2", "value": "42 µM (inactive)"}, {"measurement": "GI50", "setting": "SK-MEL-5", "value": "18.7 µM (inactive)"}, {"measurement": "GI50", "setting": "SK-OV-3", "value": "63.5 µM (inactive)"}, {"measurement": "GI50", "setting": "TK-10", "value": "> 100 µM (inactive)"}, {"measurement": "GI50", "setting": "UACC-257", "value": "46.8 µM (inactive)"}, {"measurement": "GI50", "setting": "UO-31", "value": "41.6 µM (inactive)"}]}]}
